The test system of the assay is B6C3F1 mice, intracerebral ependymoblastoma, median survival T/C. Put plainly: NCI In Vivo Anticancer Drug Screen. Data for tumor model Ependymoblastoma (intracerebral) in B6C3F1 mice. The settings on record: endpoint: median survival time, higher = longer survival. The procedure:
The antitumor activity of compounds was measured in mice bearing transplantable tumors. Survival or tumor size were measured and the results are expressed as the measurement made in the treated group (T) divided by the measurement made in the vehicle treated control group (C). The tumor model used in this assay is Ependymoblastoma (intracerebral) in B6C3F1 mice

The mark [1] stands for this setting: dose: 12.5 mg/kg/injection, schedule: Q01DX005 (ip), vehicle: Klucel (hydroxypropylcellulose) (HPC).
Where [2] appears, read: dose: 25.0 mg/kg/injection, schedule: Q01DX005 (ip), vehicle: Klucel (hydroxypropylcellulose) (HPC).
[3] abbreviates: dose: 50.0 mg/kg/injection, schedule: Q01DX005 (ip), vehicle: Klucel (hydroxypropylcellulose) (HPC).
Where [4] appears, read: dose: 100.0 mg/kg/injection, schedule: Q01DX005 (ip), vehicle: Klucel (hydroxypropylcellulose) (HPC).
Setting [5] is: dose: 6.25 mg/kg/injection, schedule: Q01DX005 (ip), vehicle: Klucel (hydroxypropylcellulose) (HPC).

The results in this text go back to PubChem BioAssay AID226 (DTP/NCI, 2004).

Values joined by “and” are separate entries in the source; they are usually repeats but may differ in a detail not shown here. Equal entries are not always repeated. Inconclusive results and toxic doses are left out.

Take `O=NN(CCCl)C(=O)NC1CCCCC1`: the T/C is 110 % of control (dose: 1.5 mg/kg/injection, schedule: Q01DX009 (ip), vehicle: Klucel (hydroxypropylcellulose) (HPC)); 98 % of control (dose: 2.4 mg/kg/injection, schedule: Q01DX001 (ip), vehicle: other); 241 % of control (dose: 4.0 mg/kg/injection, schedule: Q01DX009 (ip), vehicle: Klucel (hydroxypropylcellulose) (HPC)); 102 % of control (dose: 4.7 mg/kg/injection, schedule: Q01DX001 (ip), vehicle: other); 154 % of control (dose: 5.18 mg/kg/injection, schedule: Q01DX005 (ip), vehicle: Klucel (hydroxypropylcellulose) (HPC)); 213 % of control (dose: 6.0 mg/kg/injection, schedule: Q01DX009 (ip), vehicle: Klucel (hydroxypropylcellulose) (HPC)). For the same molecule, the T/C by setting is: (dose: 8.0 mg/kg/injection, schedule: Q01DX009 (ip), vehicle: Klucel (hydroxypropylcellulose) (HPC)) 241 % of control; (dose: 8.64 mg/kg/injection, schedule: Q01DX005 (ip), vehicle: Klucel (hydroxypropylcellulose) (HPC)) 244 % of control; (dose: 9.5 mg/kg/injection, schedule: Q01DX001 (ip), vehicle: other) 121 % of control; (dose: 12.0 mg/kg/injection, schedule: Q01DX009 (ip), vehicle: Klucel (hydroxypropylcellulose) (HPC)) 326 % of control; (dose: 13.0 mg/kg/injection, schedule: Q01DX001 (ip), vehicle: Klucel (hydroxypropylcellulose) (HPC)) 181 % of control; (dose: 14.4 mg/kg/injection, schedule: Q01DX005 (ip), vehicle: Klucel (hydroxypropylcellulose) (HPC)) 357 % of control. The T/C (dose: 16.0 mg/kg/injection, schedule: Q01DX009 (ip), vehicle: Klucel (hydroxypropylcellulose) (HPC)) was 104 % of control; the T/C (dose: 18.9 mg/kg/injection, schedule: Q01DX001 (ip), vehicle: other) is 171 % of control; the T/C (dose: 21.6 mg/kg/injection, schedule: Q01DX001 (ip), vehicle: Klucel (hydroxypropylcellulose) (HPC)) is 193 % of control; the T/C (dose: 24.0 mg/kg/injection, schedule: Q01DX005 (ip), vehicle: Klucel (hydroxypropylcellulose) (HPC)) was 357 % of control; the T/C (dose: 24.0 mg/kg/injection, schedule: Q01DX009 (ip), vehicle: Klucel (hydroxypropylcellulose) (HPC)) is 315 % of control; the T/C (dose: 32.0 mg/kg/injection, schedule: Q01DX001 (ip), vehicle: saline + alcohol) is 233 % of control. In addition, the T/C reads like this: (dose: 36.0 mg/kg/injection, schedule: Q01DX001 (ip), vehicle: Klucel (hydroxypropylcellulose) (HPC)) 363 % of control; (dose: 37.8 mg/kg/injection, schedule: Q01DX001 (ip), vehicle: other) 331 % of control; (dose: 40.0 mg/kg/injection, schedule: Q01DX005 (ip), vehicle: Klucel (hydroxypropylcellulose) (HPC)) 154 % of control; (dose: 60.0 mg/kg/injection, schedule: Q01DX001 (ip), vehicle: Klucel (hydroxypropylcellulose) (HPC)) 363 % of control; (dose: 64.0 mg/kg/injection, schedule: Q01DX001 (ip), vehicle: saline + alcohol) 324 % of control; (dose: 100.0 mg/kg/injection, schedule: Q01DX001 (ip), vehicle: Klucel (hydroxypropylcellulose) (HPC)) 363 % of control. Also, the T/C (dose: 128.0 mg/kg/injection, schedule: Q01DX001 (ip), vehicle: saline + alcohol) is 90 % of control.

Turning to `O=c1ccc2ccccc2o1`, the T/C is, setting by setting: under setting [1], 100 % of control; under setting [2], 92 % of control; (dose: 45.0 mg/kg/injection, schedule: Q01DX005 (ip), vehicle: saline with Tween-80) 103 % of control; under setting [3], 108 % of control; (dose: 90.0 mg/kg/injection, schedule: Q01DX005 (ip), vehicle: saline with Tween-80) 98 % of control; under setting [4], 104 % of control.

For the molecule `CCC(C)Sc1nc(N)nc2c1ncn2C1OC(CO)C(O)C1O` (centres undefined), the T/C was 97 % of control and 119 % of control (dose: 37.5 mg/kg/injection, schedule: Q01DX005 (ip), vehicle: Klucel (hydroxypropylcellulose) (HPC)); 113 % of control and 116 % of control (dose: 75.0 mg/kg/injection, schedule: Q01DX005 (ip), vehicle: Klucel (hydroxypropylcellulose) (HPC)); 115 % of control (dose: 150.0 mg/kg/injection, schedule: Q01DX005 (ip), vehicle: Klucel (hydroxypropylcellulose) (HPC)); 95 % of control and 113 % of control (dose: 300.0 mg/kg/injection, schedule: Q01DX005 (ip), vehicle: Klucel (hydroxypropylcellulose) (HPC)).

Turning to `O=C1NC2(CCCCC2)C(=O)N1CCN(CCCl)CCCl`, the T/C (dose: 1.0 mg/kg/injection, schedule: Q01DX005 (ip), vehicle: Klucel (hydroxypropylcellulose) (HPC)) is 116 % of control; the T/C (dose: 1.0 mg/kg/injection, schedule: Q01DX005 (ip), vehicle: saline) is 99 % of control and 103 % of control and 107 % of control; the T/C (dose: 1.5 mg/kg/injection, schedule: Q01DX005 (ip), vehicle: Klucel (hydroxypropylcellulose) (HPC)) is 101 % of control; the T/C (dose: 1.56 mg/kg/injection, schedule: Q01DX005 (ip), vehicle: Klucel (hydroxypropylcellulose) (HPC)) is 100 % of control; the T/C (dose: 2.0 mg/kg/injection, schedule: Q01DX005 (ip), vehicle: Klucel (hydroxypropylcellulose) (HPC)) is 99 % of control; the T/C (dose: 2.5 mg/kg/injection, schedule: Q01DX005 (ip), vehicle: other) was 97 % of control. Also, the T/C (dose: 2.5 mg/kg/injection, schedule: Q01DX005 (ip), vehicle: saline) was 100 % of control; the T/C (dose: 3.0 mg/kg/injection, schedule: Q01DX005 (ip), vehicle: Klucel (hydroxypropylcellulose) (HPC)) was 110 % of control; the T/C (dose: 3.12 mg/kg/injection, schedule: Q01DX005 (ip), vehicle: Klucel (hydroxypropylcellulose) (HPC)) is 101 % of control; the T/C (dose: 4.0 mg/kg/injection, schedule: Q01DX005 (ip), vehicle: Klucel (hydroxypropylcellulose) (HPC)) was 117 % of control; the T/C (dose: 5.0 mg/kg/injection, schedule: Q01DX005 (ip), vehicle: other) is 112 % of control; the T/C (dose: 5.0 mg/kg/injection, schedule: Q01DX005 (ip), vehicle: saline) was 98 % of control. The T/C was 111 % of control (dose: 6.0 mg/kg/injection, schedule: Q01DX005 (ip), vehicle: Klucel (hydroxypropylcellulose) (HPC)); 105 % of control and 88 % of control (dose: 6.0 mg/kg/injection, schedule: Q01DX005 (oral), vehicle: Klucel (hydroxypropylcellulose) (HPC)); 105 % of control under setting [5]; 112 % of control (dose: 8.0 mg/kg/injection, schedule: Q01DX005 (ip), vehicle: Klucel (hydroxypropylcellulose) (HPC)); 98 % of control (dose: 10.0 mg/kg/injection, schedule: Q01DX005 (ip), vehicle: saline); 87 % of control (dose: 12.0 mg/kg/injection, schedule: Q01DX005 (oral), vehicle: Klucel (hydroxypropylcellulose) (HPC)). Further, the T/C is, setting by setting: (dose: 24.0 mg/kg/injection, schedule: Q01DX005 (oral), vehicle: Klucel (hydroxypropylcellulose) (HPC)) 92 % of control and 100 % of control; (dose: 48.0 mg/kg/injection, schedule: Q01DX005 (oral), vehicle: Klucel (hydroxypropylcellulose) (HPC)) 101 % of control; (dose: 96.0 mg/kg/injection, schedule: Q01DX005 (oral), vehicle: Klucel (hydroxypropylcellulose) (HPC)) 97 % of control.

`O=C(NCCCl)NCCCl`: the T/C is, setting by setting: under setting [5], 102 % of control and 105 % of control; under setting [1], 102 % of control and 104 % of control; under setting [2], 93 % of control and 99 % of control; under setting [3], 92 % of control and 103 % of control; under setting [4], 98 % of control and 107 % of control; (dose: 200.0 mg/kg/injection, schedule: Q01DX005 (ip), vehicle: Klucel (hydroxypropylcellulose) (HPC)) 96 % of control and 107 % of control. The T/C (dose: 400.0 mg/kg/injection, schedule: Q01DX005 (ip), vehicle: Klucel (hydroxypropylcellulose) (HPC)) was 108 % of control and 87 % of control.

On to `CCCCCCCC(=O)O[C@H]1[C@H]2[C@@H](CC1(C)C)C(=O)[C@]13O[C@H]1C(=O)[C@]1(CO1)[C@]23C`, for which the T/C (dose: 0.62 mg/kg/injection, schedule: Q01DX005 (ip), vehicle: Klucel (hydroxypropylcellulose) (HPC)) is 107 % of control; the T/C (dose: 1.25 mg/kg/injection, schedule: Q01DX005 (ip), vehicle: Klucel (hydroxypropylcellulose) (HPC)) is 106 % of control; the T/C (dose: 2.5 mg/kg/injection, schedule: Q01DX005 (ip), vehicle: Klucel (hydroxypropylcellulose) (HPC)) was 111 % of control; the T/C (dose: 5.0 mg/kg/injection, schedule: Q01DX005 (ip), vehicle: Klucel (hydroxypropylcellulose) (HPC)) was 110 % of control; the T/C (dose: 10.0 mg/kg/injection, schedule: Q01DX005 (ip), vehicle: Klucel (hydroxypropylcellulose) (HPC)) is 102 % of control; the T/C (dose: 20.0 mg/kg/injection, schedule: Q01DX005 (ip), vehicle: Klucel (hydroxypropylcellulose) (HPC)) is 101 % of control.
